Measured values published in patent US20250346613A1, “BORIC ACID PROTEASOME INHIBITOR AND USE THEREOF” (ARTIVILA BIOPHARMA, priority 2022, published 2025).

Experiments:
Assay type in all cases: cell-based
[1] = system: MM.1S cell strain; assay: Inhibitory activity of cell strain (CellTiter-Glo); conditions: Homo sapiens, MM1.S, 72 h incubation
Experimental: The cells used in this experiment were MM.1S cell strain and the detection reagent was CellTiter-Glo (Promega). […] The experimental process was described below. MM.1S cells in the logarithmic growth phase and in a good status were digested into individual cells by trypsin, centrifuged to remove the supernatant, and counted. Cells were diluted and 100 μL of cell suspension per well was added to a 96-well enzyme-coated plate at 1×10^5 cells per well. The wells containing only RPMI1640 complete medium were set as blank control. The 96-well plate was transferred to a 37° C. incubator containing 5% CO2 for 24 h of incubation.
The compound was accurately weighed and dissolved in DMSO to a concentration of 10^−2 M. 10 μL of compound was pipetted to 190 μL of DMSO to given a 5×10^−4 M compound. 6 μL of the compound (5×10^−5 M) was pipetted to a new 96-well microplate containing 194 μL of RPMI1640 complete medium and diluted in a 3-fold gradient dilution. 50 μL of the diluted compound was transferred to the 96-well microplate containing the cells such that the final compound concentrations were 5×10^−7 M, 1.67×10^−7 M, 5.55×10^−8 M, 1.85×10^−8 M, 6.17×10^−9 M, 2.06×10^−9 M, 6.86×10^−10 M, 2.29×10^−10 M, and 0 M. For the 0 M, no compound was added, and the same concentration of DMSO was added. The marketed drug bortezomib was used as a positive control. The 96-well microplate added with compounds was placed in the 37° C. incubator for 72 h of incubation.
At the predetermined detection time, the 96-well microplate to be detected was placed at room temperature, added with 40 μL of detection reagent (CellTiter-Glo) per well, and covered with a dark lid or piece of aluminium foil. The contents were mixed on an orbit oscillator for 10 min for complete cell lysis, with a vibration speed of 150 rpm. Luminescence values were detected on a multifunctional microplate reader (BioTek Synergy H1 Hybrid Multi-Mode Reade).
The data were exported and the percentage inhibition was calculated according to the following formula: Inhibition rate=(maximum signal value-compound signal value)/(maximum signal value−blank signal value)×100%, • wherein maximum signal was obtained from alone DMSO-treated cells, and blank signal was obtained from wells containing only culture medium.

[2] = molecular target: T1, β5i subunit of the 20S proteasome (Homo sapiens, UniProt P20618+P28062); assay: Proteasome inhibitory activity, β5i subunit (Raji cells treated with compound, lysed, Ac-ANW-AMC substrate); conditions: proteasome from Raji cells incubated with compound 4 h
T1 construct: The proteasome tested in the present disclosure was derived from Raji cells; endogenous in cells; host or cells: Raji cells
From the text: (§1) In the present disclosure, the fluorescent peptide substrate Ac-Ala-Asn-Trp-AMC (abbreviated as Ac-ANW-AMC) and the […] kit containing a fluorescent peptide substrate Suc-Leu-Leu-Val-Tyr-AMC (abbreviated as Suc-LLVY-AMC) (Promega, Item No. G8660) were used to detect the activities of the β5i subunit and β5c subunit of the 20S proteasome, respectively.
(§2) The proteasome tested in the present disclosure was derived from Raji cells, the fluorescent substrate Ac-ANW-AMC was purchased from Roche company, and other reagents were purchased from Sigma company. The experimental system was divided into two parts of cell lysis system and enzyme reaction system. […] The starting concentration of the compound (inhibitor) was 1 μM. It was diluted in a 3-fold serial dilution to a total of 8 concentrations, that is, the administration concentration can be 1 μM, 0.333 μM, 0.111 μM . . . , respectively, and the specific experimental process was described below.
(§3) Raji cells (1×10^6 cells) cryopreserved in liquid nitrogen were thawed rapidly in a water bath at 37° C. The cell pellet was transferred to a 15 mL centrifuge tube, added with 9 mL of fresh medium (Gibco RPMI1640 added with 10% fetal bovine serum and 1% double antibiotics), centrifuged at 120 g for 5 min, inoculated to 25 mL cell culture flasks, and passaged once every 2-3 days.
(§4) The compound was weighed and dissolved in DMSO to a concentration of 10 mM. The compound was then sequentially diluted to concentrations of 200 μM, 66.67 μM, 22.22 μM, 7.41 μM, 2.47 μM, 0.82 μM, 0.27 μM, and 0.091 μM with fresh medium. Raji cells in a good growth status were inoculated into a 48-well cell culture plate at 7×10^5 cells/mL.
(§5) Raji cells in a good growth status were taken and counted. They were then inoculated to a 48-well cell culture plate at 7×10^5 cells/mL. Each 5 μL of the various concentrations of diluted compounds above were taken and added to the culture plate inoculated with cells, and the lowest concentration of compound was 0 μM. The drug bortezomib (Velcade) and ONX-0914 were used as the positive control compounds. All cells were incubated at 37° C. for 4 h.
(§6) The compound-treated cells were sequentially transferred into 1.5 mL centrifuge tubes, centrifuged at 10000 rpm for 2 min, and the supernatants were removed. The cell pellet was resuspended in 1 mL of PBS, centrifuged at 10000 rpm for 2 min, and the supernatant was removed. Cells were resuspended by adding 100 μL of cell lysate (50 mM Tris of pH 7.5, 150 mM NaCl, 5 mM MgCl2, 5 mM ATP, 1 mM DTT, 0.01% NP-40, 1 mM Digitonin, and Cocktail), placed in an ice bath for 30 min, and centrifuged at 13000 rpm for 10 min.
(§7) 2 mg of fluorescent peptide substrate AC-ANW-AMC was dissolved in 424.7 μL of DMSO to obtain an 8 mM stock solution, and stored at −20° C. The stock solution was diluted 100-fold to a final concentration of […] for use in the reaction system. The fluorescent peptide substrate Suc-LLVY-AMC was prepared according to the instructions of the Promega kit.
(§8) Each 20 μL of the prepared proteasome solution above was added to a 96-well white luciferase microplate and added with 25 μL of AC-ANW-AM substrate buffer solution (50 mM Tris of pH 7.5, 150 mM NaCl, 5 mM MgCl2, 5 mM ATP, 80 uM Ac-ANW-AMC and 1 mM DTT) and 25 μL of Suc-LLVY-AMC substrate buffer solution for 10 min of reaction at 37° C. in the dark. Fluorescence values were read at 345 nm/445 nm by using a fluorence microplate reader.
(§9) The data were exported and the inhibition rate in percentage was calculated according to the following formula: Inhibition rate=(maximum signal value-compound signal value)/(maximum signal value−blank signal value)×100%.
(§10) Where the maximum signal was obtained from cell lysates treated with DMSO only, and the blank signal was obtained from wells containing only lysates.

[3] = molecular target: T2, β5c subunit of the 20S proteasome (Homo sapiens, UniProt P20618+P28074); assay: Proteasome inhibitory activity, β5c subunit (Raji cells treated with compound, lysed, Suc-LLVY-AMC substrate); conditions: proteasome from Raji cells incubated with compound 4 h
T2 construct: The proteasome tested in the present disclosure was derived from Raji cells; endogenous in cells; host or cells: Raji cells
From the text: as §1, §2, §3, §4, §5, §6, §7, §8, §9, §10

SMILES | IC50 [1] [nM] | IC50 [2] [nM] | IC50 [3] [nM]
COc1cccc(CNC(=O)CC(=O)N[C@@H](Cc2coc3ccccc23)B(O)O)c1 [Example 46, (R)-(2-(benzofuran-3-yl)-1-(3-((3-methoxybenzyl)amino)-3-oxopropionamido)ethyl)boric acid] | ≤ 50 | ≤ 50 | ≤ 50
CC(C(=O)Nc1ccccc1)C(=O)N[C@@H](Cc1ccccc1)B(O)O (stereo partly drawn) [Example 47, ((1R)-1-(2-methyl-3-oxo-3-(phenylamino)propionylamino)-2-phenylethyl)boronic acid] | 200 to 500 | ≤ 50 | 50 to 200
Cc1ccc(C[C@H](NC(=O)C(C)(F)C(=O)NCc2cccc(-c3ccccc3)n2)B(O)O)cc1 (stereo partly drawn) [Example 56, ((1R)-1-(2-fluoro-2-methyl-3-oxo-3-(((6-phenylpyridin-2-yl)methyl)amino)propionylamino)-2-(p-tolyl)ethyl)boric acid] | 50 to 200 | ≤ 50 | ≤ 50
CC(C(=O)NCc1cccc(-c2ccccc2)n1)C(=O)N[C@@H](Cc1coc2ccccc12)B(O)O (stereo partly drawn) [Example 57, ((1R)-2-(benzofuran-3-yl)-1-(2-methyl-3-oxo-3-(((6-phenylpyridin-2-yl)methyl)amino)propionamido)ethyl)boric acid] | ≤ 50 | ≤ 50 | ≤ 50
CC(C(=O)NCc1cccc(-c2ccccc2)n1)C(=O)N[C@@H](Cc1ccc(-c2ccccc2)cc1)B(O)O (stereo partly drawn) [Example 58] | 50 to 200 | ≤ 50 | ≤ 50
CC(C(=O)NCc1ccc(Cl)cc1Cl)C(=O)N[C@@H](Cc1coc2ccccc12)B(O)O (stereo partly drawn) [Example 60, ((1R)-2-(benzofuran-3-yl)-1-(3-((2,4-dichlorobenzyl)amino)-2-methyl-3-oxopropionamido)ethyl) boric acid] | ≤ 50 | ≤ 50 | ≤ 50

The remaining lines, values ahead:

IC50 [1] [nM] | IC50 [2] [nM] | IC50 [3] [nM] | SMILES
≤ 50 | ≤ 50 | ≤ 50 | COc1cccc(CNC(=O)CC(=O)N[C@@H](CC(C)C)B(O)O)c1 [Example 48, (R)-(1-(3-((3-methoxybenzyl)amino)-3-oxopropionamido)-3-methylbutyl)boric acid]
≤ 50 | ≤ 50 | ≤ 50 | COc1cccc(CNC(=O)CC(=O)N[C@@H](Cc2ccccc2)B(O)O)c1 [Example 49, (R)-(1-(3-((3-methoxybenzyl)amino)-3-oxopropionylamino)-2-phenylethyl)boric acid]
≤ 50 | ≤ 50 | ≤ 50 | COc1cccc(CNC(=O)CC(=O)N[C@@H](Cc2ccc(C)cc2)B(O)O)c1 [Example 50, (R)-(1-(3-((3-methoxybenzyl)amino)-3-oxopropionylamino)-2-(p-tolyl)ethyl)boric acid]
≤ 50 | ≤ 50 | ≤ 50 | COc1cccc(CCNC(=O)C(C)C(=O)N[C@@H](Cc2ccc(C)cc2)B(O)O)c1 (stereo partly drawn) [Example 62, ((1R)-1-(3-((3-methoxyphenylethyl)amino)-2-methyl-3-oxopropionamido)-2-(p-tolyl)ethyl)boric acid]
≤ 50 | ≤ 50 | ≤ 50 | COc1cccc(CCNC(=O)C(C)C(=O)N[C@@H](Cc2ccc(-c3ccccc3)cc2)B(O)O)c1 (stereo partly drawn) [Example 64, ((1R)-2-([1,1′-biphenyl]-4-yl)-1-(3-((3-methoxyphenylethyl)amino)-2-methyl-3-oxopropionamido)ethyl)boric acid]
≤ 50 | ≤ 50 | ≤ 50 | COc1cccc(CNC(=O)C(Cc2ccccc2)C(=O)N[C@@H](Cc2ccc(C)cc2)B(O)O)c1 (stereo partly drawn) [Example 65, ((1R)-1-(2-benzyl-3-((3-methoxybenzyl)amino)-3-oxopropionamido)-2-(p-tolyl)ethyl)boric acid]
≤ 50 | ≤ 50 | ≤ 50 | COc1cccc(CNC(=O)C(Cc2ccccc2)C(=O)N[C@@H](CC(C)C)B(O)O)c1 (stereo partly drawn) [Example 66, ((1R)-1-(2-benzyl-3-((3-methoxybenzyl)amino)-3-oxopropionamido)-3-methylbutyl)boronic acid]
